Laboratory results from PubChem BioAssay AID1845197 (Molecular Pharmacology Branch, DTP, NCI, 2023).

Test system: 349418-098-R tumor spheroid viability
Assay: Anticancer human tumor 349418-098-R patient-derived lung adenocarcinoma cell line growth inhibition
Settings: spheroids with HUVEC and MSC; for IC50: curve of first compound; for viability, T/C: stronger effect = lower value
In short: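 Single agents and combinations were tested on spheroids built from tumor cells plus HUVEC and hMSC, at half-log dilutions starting at or near clinical Cmax, else 10 microM; final DMSO 0.25% (v/v).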

[1] = second compound 30 pM, first compound 0.00949 µM
[2] = second compound 30 pM, first compound 0.03 µM
[3] = second compound 30 pM, first compound 0.0949 µM
[4] = second compound 30 pM, first compound 0.3 µM
[5] = second compound 30 pM, first compound 0.949 µM
[6] = second compound 30 pM, first compound 3 µM
[7] = second compound 94.9 pM, first compound 0.00949 µM
[8] = second compound 94.9 pM, first compound 0.03 µM
[9] = second compound 94.9 pM, first compound 0.0949 µM
[10] = second compound 94.9 pM, first compound 0.3 µM
[11] = second compound 94.9 pM, first compound 0.949 µM
[12] = second compound 94.9 pM, first compound 3 µM
[13] = second compound 0.0003 µM, first compound 0.00949 µM
[14] = second compound 0.0003 µM, first compound 0.03 µM
[15] = second compound 0.0003 µM, first compound 0.0949 µM
[16] = second compound 0.0003 µM, first compound 0.3 µM
[17] = second compound 0.0003 µM, first compound 0.949 µM
[18] = second compound 0.0003 µM, first compound 3 µM
[19] = second compound 0.000949 µM, first compound 0.00949 µM
[20] = second compound 0.000949 µM, first compound 0.03 µM
[21] = second compound 0.000949 µM, first compound 0.0949 µM
[22] = second compound 0.000949 µM, first compound 0.3 µM
[23] = second compound 0.000949 µM, first compound 0.949 µM
[24] = second compound 0.000949 µM, first compound 3 µM
[25] = second compound 0.003 µM, first compound 0.00949 µM
[26] = second compound 0.003 µM, first compound 0.03 µM
[27] = second compound 0.003 µM, first compound 0.0949 µM
[28] = second compound 0.003 µM, first compound 0.3 µM
[29] = second compound 0.003 µM, first compound 0.949 µM
[30] = second compound 0.003 µM, first compound 3 µM
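Note: spheroids exposed to compound for 7 days before measurement.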
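Throughout, for viability, T/C: percent of vehicle control viability with 100% = DMSO-treated spheroids.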

Compound	IC50 (second compound 30 pM)	IC50 (second compound 94.9 pM)	IC50 (second compound 0.0003 µM)	IC50 (second compound 0.000949 µM)	IC50 (second compound 0.003 µM)	viability, T/C [1]	viability, T/C [2]	viability, T/C [3]	viability, T/C [4]	viability, T/C [5]	viability, T/C [6]	viability, T/C [7]	viability, T/C [8]	viability, T/C [9]	viability, T/C [10]	viability, T/C [11]	viability, T/C [12]	viability, T/C [13]	viability, T/C [14]	viability, T/C [15]	other results
CNCc1ccc(-c2cc(-c3nc(-c4ccc(S(=O)(=O)C(C)C)cc4)cnc3N)on2)cc1 + COc1cc2c(cc1O)CCNC21CSC2c3c(OC(C)=O)c(C)c4c(c3C(COC1=O)N1C(O)C3Cc5cc(C)c(OC)c(O)c5C(C21)N3C)OCO4	448 nM	202 nM	162 nM	< 9.49 nM	< 9.49 nM	105%	91.3%	87.8%	69.6%	14.5%	5.77%	97%	97.5%	85.4%	31.1%	10.2%	3.32%	91.6%	93.5%	79.5%	viability, T/C [16]: 15.6%; viability, T/C [17]: 5.43%; viability, T/C [18]: 2.26%; viability, T/C [19]: 0.44%; viability, T/C [20]: 0.78%; viability, T/C [21]: 0.51%; viability, T/C [22]: 0.68%; viability, T/C [23]: 0.41%; viability, T/C [24]: 0.11%; viability, T/C [25]: 1.46%; viability, T/C [26]: 1.27%; viability, T/C [27]: 0.93%; viability, T/C [28]: 1.07%; viability, T/C [29]: 1.05%; viability, T/C [30]: 0.22%
Cc1sc2c(c1C)C(c1ccc(Cl)cc1)=NC(CC(=O)Nc1ccc(O)cc1)c1nnc(C)n1-2 (stereo not given) + COc1cc2c(cc1O)CCNC21CSC2c3c(OC(C)=O)c(C)c4c(c3C(COC1=O)N1C(O)C3Cc5cc(C)c(OC)c(O)c5C(C21)N3C)OCO4	142 nM	104 nM	39.2 nM	< 9.49 nM	< 9.49 nM	97.4%	101%	63.3%	22.3%	3.92%	0.75%	99.1%	104%	53.6%	7.33%	1.23%	0.57%	87.3%	56%	28.3%	viability, T/C [16]: 4.02%; viability, T/C [17]: 0.43%; viability, T/C [18]: 0.38%; viability, T/C [19]: 0.25%; viability, T/C [20]: 0.35%; viability, T/C [21]: 0.19%; viability, T/C [22]: 0.18%; viability, T/C [23]: 0.18%; viability, T/C [24]: 0.57%; viability, T/C [25]: 1.49%; viability, T/C [26]: 1.62%; viability, T/C [27]: 1.47%; viability, T/C [28]: 1.59%; viability, T/C [29]: 2.52%; viability, T/C [30]: 3.49%
